Where two headings read alike, the source gives them in different places.
Assay: Pharmacokinetics in rat plasma after oral and intravenous administration
Assay type: in vivo, Sprague Dawley rats
Details: for half-life / AUC / Cmax / Tmax: male, Sprague-Dawley, rat, plasma, 100 mg/kg; for half-life: read-out: t1/2 half-life (converted); for Cmax / Tmax: oral; for Bioavailabilty: rat plasma, ProFine 100 mg/kg (n = 3), oral vs IV
Description: Blood samples were collected at 9 time points, i.e., 0 min, 15 min, 30 min, 60 min, 2 h, 4 h, 8 h, 12 h and 24 h. Plasma levels of Luteolin, Quercetin and Kaempferol were analyzed using HPLC. […]

half-life	AUC (iv, read-out: AUC0.24 (IV))	Cmax	Tmax	AUC (po, read-out: AUC0.24 (Oral))	Bioavailabilty	Structure (SMILES)
2.26 h	90100 ng·h/mL	127 ng/mL	1 h	1170 ng·h/mL	1.30%	O=c1cc(-c2ccc(O)c(O)c2)oc2cc(O)cc(O)c12 [Ingredient 1, 3′,4′,5,7-tetrahydroxyflavone]
2.45 h	93800 ng·h/mL	165 ng/mL	4 h	2710 ng·h/mL	2.89%	O=c1c(O)c(-c2ccc(O)cc2)oc2cc(O)cc(O)c12 [Ingredient 3, 3,5,7-trihydroxy-2-(4-hydroxyphenyl)-4H-1-benzopyran-4-one]

Structure (SMILES)	half-life	AUC (iv, read-out: AUC0.24 (IV))	Cmax	Tmax	AUC (po, read-out: AUC0.24 (Oral))	Bioavailabilty
O=c1c(O)c(-c2ccc(O)c(O)c2)oc2cc(O)cc(O)c12 [Ingredient 2, 3,3′,4′5,7-Penthydroxyflavone]	1.71 h	27200 ng·h/mL	51.9 ng/mL	1 h	248 ng·h/mL	0.91%
